From patent US20150202167A1, “Trans-Clomiphene Formulations and Uses Thereof” (REPROS THERAPEUTICS INC., priority 2012, published 2015)

What was measured:
[1] = noted by Ernst et al.; cited from earlier work
[2] = cited from earlier work
[3] = Particle size analysis by laser diffraction (Malvern Mastersizer 2000); assay type: physicochemical; conditions: for d10: 10% of the total volume of particles is less than the indicated size; for d10 / d50 / d90: final method conditions, 0.1% (w/v) Span 85 in hexane; for d50: 50% of the total volume of particles is less than the indicated size; for d90: 90% of the total volume of particles is less than the indicated size
Excerpt: Trans-clomiphene is characterized for size using an instrument adapted to measure equivalent spherical volume diameter, such as a Malvern Mastersizer 2000 laser diffraction particle size analyzer or equivalent instrument. After being characterized for size, the trans-clomiphene is then milled, if necessary, preferably using a pin mill under suitable conditions of mill rotation rate and feed rate, to bring the particle size value within the above mentioned limits according to the invention. The efficiency of milling is checked by sampling using a Malvern Mastersizer 2000 laser diffraction particle size analyzer and the final particle size is checked in a similar manner.
The values found from characterizing a large number of “unknown” particles can be plotted frequency vs. diameter. This gives a characteristic curve representing size distribution of the sample, i.e., cumulative percentage under size distribution curve. Values from this can be read off directly or plotted on log-probability paper to give an appropriate straight line. The mean equivalent spherical volume diameter is the 50% undersize value. The mean equivalent spherical volume diameter found is thus a statistical representation of a theoretical particle having the same property as the “unknown” particle. The following is a description by way of example.
Repeated particle size measurements of the sample dispersed in 0.1% (w/v) Span™ 85 in hexane were collected while recirculating over the course of approximately five minutes with a pump speed of 1000 rpm. Particle size (d10, d50, d90) was plotted versus the recirculation time. Values for both the d10 and d50 fell within a narrow range for the duration. The decrease in the d90 primarily occurred over the first 90 seconds with a gradual decrease thereafter.
Repeated particle size measurements of the sample were collected while recirculating for 90 seconds with increasing pump speeds to examine the effect of pump speed on particle size. […] A pump speed of 1500 rpm was selected to optimize both dispersion of agglomerates and suspension of the larger particles and to minimize attrition of the blades and needles.
One particle size measurement of each sample of trans-clomiphene citrate was collected using the final method conditions. Three of the lots shared a similar bimodal particle size distribution whereas one lot contained a third mode consisting of much larger particles. The remaining lot of was bimodal but reflected much larger particle sizes than the distributions of the earlier three lots with bimodal distributions.
Particle size data was acquired using a Malvern Instruments MS2000 equipped with a Hydro 2000 μP dispersion unit. Data was collected and analyzed using Mastersizer 2000 v. 5.60 software using volume based measurements. NIST-traceable glass beads were used as the reference standard.
Particle size of trans-clomiphene citrate using the final method conditions is reproduced below: […]

[4] = Evaluation of dispersants for trans-clomiphene citrate; assay type: physicochemical; conditions: 0.01% (w/v) Tween 20 (polysorbate 20) in water
Experimental: 0.1% (w/v) Lecithin in Isopar G™, 0.1% (w/v) Span™ 85 (sorbitane trioleate) in hexane, and 0.01% (w/v) Tween® 20 (polysorbate 20) in water were evaluated as dispersants for trans-clomiphene citrate. Samples suspended easily in each of the two organic dispersants and settled out of suspension slowly. […] Samples dispersed in the Isopar G™-based and hexane-based dispersants were examined microscopically. […] 0.1% (w/v) Span™ 85 in hexane was selected for further analysis.

For `CCN(CC)CCOc1ccc(/C(=C(/Cl)c2ccccc2)c2ccccc2)cc1` (single isomer, unassigned) [trans-isomer, trans-2-(p-(2-chloro-1,2-diphenylvinyl)phenoxy)triethylamine], the “estrogenic / antiestrogenic character” value [1] is given as “antiestrogenic”.
For `CCN(CC)CCOc1ccc(C(=C(Cl)c2ccccc2)c2ccccc2)cc1` [clomiphene], the “FSH, LH” value ([2]; both young and old men after treatment with clomiphene) is listed as “increases” and the “free and total testosterone” value ([2]; men, young men showing significant increases) is listed as “increases”.
`CCN(CC)CCOc1ccc(/C(=C(/Cl)c2ccccc2)c2ccccc2)cc1.O=C(O)CC(O)(CC(=O)O)C(=O)O` [compound 16204] showed a d10 [3] of 8.058 μm, a d50 [3] of 106.743 μm and a d90 [3] of 318.464 μm.
`CCN(CC)CCOc1ccc(/C(=C(/Cl)c2ccccc2)c2ccccc2)cc1.O=C(O)CC(O)(CC(=O)O)C(=O)O` [compound 24712] gave a d10 [3] of 4.038 μm, a d50 [3] of 13.902 μm and a d90 [3] of 218.573 μm.
With `CCN(CC)CCOc1ccc(/C(=C(/Cl)c2ccccc2)c2ccccc2)cc1.O=C(O)CC(O)(CC(=O)O)C(=O)O` [compound 24867] the d10 [3] was 4.794 μm, the d50 [3] was 13.418 μm and the d90 [3] was 70.289 μm.
With `CCN(CC)CCOc1ccc(/C(=C(/Cl)c2ccccc2)c2ccccc2)cc1.O=C(O)CC(O)(CC(=O)O)C(=O)O` [compound 31249] the d10 [3] was 4.850 μm, the d50 [3] was 13.455 μm and the d90 [3] was 76.891 μm.
In the case of `CCN(CC)CCOc1ccc(/C(=C(/Cl)c2ccccc2)c2ccccc2)cc1.O=C(O)CC(O)(CC(=O)O)C(=O)O` [compound 32305], the d10 [3] is reported as 3.373 μm, the d50 [3] is reported as 9.664 μm and the d90 [3] is reported as 44.995 μm. For the same molecule, the Vol under % ([3]; size 0.010 μm) was 0.00%, the Vol under % ([3]; size 0.011 μm) was 0.00% and the Vol under % ([3]; size 0.013 μm) was 0.00%. It also gave a Vol under % ([3]; size 0.015 μm) of 0.00%, a Vol under % ([3]; size 0.017 μm) of 0.00% and a Vol under % ([3]; size 0.020 μm) of 0.00%. It also gave a Vol under % ([3]; size 0.023 μm) of 0.00%, a Vol under % ([3]; size 0.026 μm) of 0.00% and a Vol under % ([3]; size 0.030 μm) of 0.00%. For the same molecule, the Vol under % ([3]; size 0.035 μm) was 0.00%, the Vol under % ([3]; size 0.040 μm) was 0.00% and the Vol under % ([3]; size 0.046 μm) was 0.00%. For the same molecule, the Vol under % ([3]; size 0.052 μm) was 0.00%, the Vol under % ([3]; size 0.060 μm) was 0.00% and the Vol under % ([3]; size 0.069 μm) was 0.00%. For the same molecule, the Vol under % ([3]; size 0.079 μm) was 0.00%, the Vol under % ([3]; size 0.091 μm) was 0.00% and the Vol under % ([3]; size 0.105 μm) was 0.00%. For the same molecule, the Vol under % ([3]; size 0.120 μm) was 0.00%, the Vol under % ([3]; size 0.138 μm) was 0.00% and the Vol under % ([3]; size 0.158 μm) was 0.00%. It also gave a Vol under % ([3]; size 0.182 μm) of 0.00%, a Vol under % ([3]; size 0.209 μm) of 0.00% and a Vol under % ([3]; size 0.240 μm) of 0.00%. The Vol under % ([3]; size 0.275 μm) was 0.00%, the Vol under % ([3]; size 0.316 μm) was 0.00% and the Vol under % ([3]; size 0.363 μm) was 0.00%. It also gave a Vol under % ([3]; size 0.417 μm) of 0.00%, a Vol under % ([3]; size 0.479 μm) of 0.00% and a Vol under % ([3]; size 0.550 μm) of 0.00%. For the same molecule, the Vol under % ([3]; size 0.631 μm) was 0.00%, the Vol under % ([3]; size 0.724 μm) was 0.00% and the Vol under % ([3]; size 0.832 μm) was 0.00%. The Vol under % ([3]; size 0.965 μm) was 0.02%, the Vol under % ([3]; size 1.096 μm) was 0.10% and the Vol under % ([3]; size 1.259 μm) was 0.28%. The Vol under % ([3]; size 1.445 μm) was 0.60%, the Vol under % ([3]; size 1.660 μm) was 1.12% and the Vol under % ([3]; size 1.905 μm) was 1.93%. It also gave a Vol under % ([3]; size 2.188 μm) of 3.10%, a Vol under % ([3]; size 2.512 μm) of 4.72% and a Vol under % ([3]; size 2.884 μm) of 6.86%. For the same molecule, the Vol under % ([3]; size 3.311 μm) was 9.59%, the Vol under % ([3]; size 3.802 μm) was 12.94% and the Vol under % ([3]; size 4.385 μm) was 16.94%. It also gave a Vol under % ([3]; size 5.012 μm) of 21.58%, a Vol under % ([3]; size 5.754 μm) of 26.82% and a Vol under % ([3]; size 6.607 μm) of 32.58%. It also gave a Vol under % ([3]; size 7.586 μm) of 38.74%, a Vol under % ([3]; size 8.710 μm) of 45.14% and a Vol under % ([3]; size 10.00 μm) of 51.59%. It also gave a Vol under % ([3]; size 11.482 μm) of 57.87%, a Vol under % ([3]; size 13.183 μm) of 63.80% and a Vol under % ([3]; size 15.136 μm) of 69.20%. For the same molecule, the Vol under % ([3]; size 17.378 μm) was 73.95%, the Vol under % ([3]; size 19.953 μm) was 77.98% and the Vol under % ([3]; size 22.909 μm) was 81.29%. The Vol under % ([3]; size 26.303 μm) was 83.92%, the Vol under % ([3]; size 30.200 μm) was 85.99% and the Vol under % ([3]; size 34.674 μm) was 87.62%. For the same molecule, the Vol under % ([3]; size 39.811 μm) was 88.95%, the Vol under % ([3]; size 45.709 μm) was 90.13% and the Vol under % ([3]; size 52.481 μm) was 91.28%. For the same molecule, the Vol under % ([3]; size 60.256 μm) was 92.50%, the Vol under % ([3]; size 69.183 μm) was 93.84% and the Vol under % ([3]; size 79.433 μm) was 95.28%. The Vol under % ([3]; size 91.201 μm) was 96.72%, the Vol under % ([3]; size 104.713 μm) was 98.02% and the Vol under % ([3]; size 120.226 μm) was 99.04%. The Vol under % ([3]; size 138.038 μm) was 99.72%, the Vol under % ([3]; size 158.489 μm) was 99.97% and the Vol under % ([3]; size 181.970 μm) was 100.00%. For the same molecule, the Vol under % ([3]; size 208.930 μm) was 100.00%, the Vol under % ([3]; size 239.883 μm) was 100.00% and the Vol under % ([3]; size 275.423 μm) was 100.00%. The Vol under % ([3]; size 316.228 μm) was 100.00%, the Vol under % ([3]; size 363.078 μm) was 100.00% and the Vol under % ([3]; size 416.869 μm) was 100.00%. It also gave a Vol under % ([3]; size 478.630 μm) of 100.00%, a Vol under % ([3]; size 549.541 μm) of 100.00% and a Vol under % ([3]; size 630.957 μm) of 100.00%. For the same molecule, the Vol under % ([3]; size 724.438 μm) was 100.00%, the Vol under % ([3]; size 831.764 μm) was 100.00% and the Vol under % ([3]; size 954.993 μm) was 100.00%. The Vol under % ([3]; size 1096.478 μm) was 100.00%.
With trans-clomiphene citrate the “Dissolution of the sample suspended in aqueous dispersant” value [4] was “Partial dissolution”.
